US4958010A, “Epipodophyllotoxin glucoside lactam derivatives” (Bristol-Myers Company, priority 1989, dated 1990)
In brackets after ≈: the same amount, converted by molar mass. Several values for one entry are separate records, joined by “and”; a condition that tells them apart may be missing. Equal entries are not always repeated.

What was measured:
Type in all cases: cell-based
SW900 human lung = assay: in vitro cytotoxicity assay, SW900 human lung; settings: four-fold serial dilution, replicate determinations on separate lines; for IC50: Homo sapiens, SW900, concentration required to inhibit cell growth by 50%; for IC50 SW900: concentration required to inhibit cell growth by 50%
Experimental: (§1) Representative compounds of the present invention were also evaluated in in vitro cytotoxicity assay against various murine and human tumor cell lines. The in vitro cytotoxicity assay involved growing various mammalian tumor cells, including human tumor cells, on microtitre plates employing established tissue culture methods. The concentration of each compound required to inhibit cell growth by 50% (IC50) was then determined by four-fold serial dilution technique. Tumor cells of the following types were employed for each compound tested: B16-F10 murine melanoma; Moser human colon; SW900 human lung; and two human colon tumor cell lines namely HCT-116, and HCT/VP35, the latter being resistant to etoposide (VP). […] The in vitro data may also be evaluated in terms of potency ratio which is defined as the ratio of IC50 against an etoposide-resistant cell-line to IC50 against an etoposide-sensitive cell-line.

HCT-116 = assay: in vitro cytotoxicity assay, HCT-116 human colon tumor; settings: four-fold serial dilution, replicate determinations on separate lines; for IC50: Homo sapiens, HCT-116, concentration required to inhibit cell growth by 50%; for IC50 HCT-116: concentration required to inhibit cell growth by 50%
Experimental: as §1

HCT/VP35 = assay: in vitro cytotoxicity assay, HCT/VP35 human colon tumor resistant to etoposide; settings: concentration required to inhibit cell growth by 50%, four-fold serial dilution, replicate determinations on separate lines; for IC50: Homo sapiens, HCT/VP35, etoposide-resistant line; for IC50 HCT/VP35: etoposide-resistant line
Experimental: as §1

Moser human colon = assay: in vitro cytotoxicity assay, Moser human colon; settings: concentration required to inhibit cell growth by 50%, four-fold serial dilution, replicate determinations on separate lines; for IC50: Homo sapiens
Experimental: as §1

B16-F10 murine melanoma = assay: in vitro cytotoxicity assay, B16-F10 murine melanoma; settings: four-fold serial dilution, replicate determinations on separate lines; for IC50 B16-F10: concentration required to inhibit cell growth by 50%; for IC50: Mus musculus, B16-F10, concentration required to inhibit cell growth by 50%
Experimental: as §1

Row | Structure (SMILES) | IC50 (SW900 human lung) [µg/mL] | IC50 (HCT-116) [µg/mL] | IC50 HCT-116 (HCT-116) | IC50 (HCT/VP35) [µg/mL] | IC50 (Moser human colon) [µg/mL] | IC50 B16-F10 (B16-F10 murine melanoma) | IC50 SW900 (SW900 human lung) [µg/mL] | IC50 Moser (Moser human colon) | IC50 (B16-F10 murine melanoma) [µg/mL] | IC50 HCT/VP35 (HCT/VP35) [µg/mL]
1 | COc1cc([C@@H]2c3cc4c(cc3[C@@H](O[C@@H]3O[C@@H]5CO[C@@H](C)O[C@H]5[C@H](O)[C@H]3O)[C@H]3CN(N=Cc5ccc([N+](=O)[O-])cc5)C(=O)[C@H]23)OCO4)cc(OC)c1O [Example 6, 6H-Pyrrolo[3',4':6,7]naphtho[2,3-d]-1,3-dioxole-6-one, 5,5a,7,8,8a,9-hexahydro-9-[(4,6-O-ethylidene-δ-D-glucopyranosyl)oxy]-5-[(4-hydroxy-3,5-dimethoxy)phenyl]-7-[[(4-nitrophenyl)methylene]amino], [5R-[5α,5aβ,8aα,9β(R*)]-] | > 250 | 83.6 (≈ 114 µM) | 60.66 µg/mL (≈ 82.5 µM) | > 250 | > 250 | 7.73 µg/mL and 16.11 µg/mL | – | – | – | –
2 | COc1cc([C@@H]2c3cc4c(cc3[C@@H](O[C@@H]3O[C@@H]5CO[C@@H](C)O[C@H]5[C@H](O)[C@H]3O)[C@@H](CO)[C@@H]2C(N)=O)OCO4)cc(OC)c1O (relative stereo) [Example 2, Naphtho[2,3-d]-1,3-dioxole-6-carboxamide, 5,6,7,8-tetrahydro-8-[(4,6-0-ethylidene-β-D-glucopyranosyl)oxy]-5-[(4-hydroxy-3,5-dimethoxy)phenyl]-7-(hydroxymethyl)-, [5Rα,6α,7β,8β(R*)]-] | 106 (≈ 175 µM) | 78.6 (≈ 130 µM) | 96.28 µg/mL (≈ 159 µM) | > 250 | 107 (≈ 177 µM) | 93.03 µg/mL (≈ 154 µM) | 120.54 (≈ 199 µM) | 115.67 µg/mL (≈ 191 µM) | 70.6 (≈ 117 µM) | –
3 | COc1cc([C@@H]2c3cc4c(cc3[C@@H](O[C@@H]3O[C@@H]5CO[C@@H](C)O[C@H]5[C@H](O)[C@H]3O)[C@H]3CN(N=C(C)C)C(=O)[C@H]23)OCO4)cc(OC)c1O (relative stereo) [Example 8, 6H-Pyrrolo[3',4':6,7]naphtho[2,3-d]-1,3-dioxole-6-one, 5,5,a,7,8,8a,9-hexahydro-9-[(4,6-O-ethylidene-β-D-glucopyranosyl)oxy]-5-[(4-hydroxy-3,5-dimethoxy)phenyl]-7-[(2-propylidene)amino]-, [5 R-[5α,5aβ,8aα,9β(R*)]-] | > 250 | 69.4 (≈ 108 µM) | 78.90 µg/mL and 108.89 µg/mL | 103 (≈ 160 µM) | – | 61.29 µg/mL and 74.21 µg/mL | – | 91.26 µg/mL and 123.63 µg/mL and > 250 µg/mL | 43.2 (≈ 67.3 µM) | 96.26 (≈ 150 µM)
4 | COc1cc([C@@H]2c3cc4c(cc3[C@@H](O[C@@H]3O[C@@H]5CO[C@@H](C)O[C@H]5[C@H](O)[C@H]3O)[C@H]3CN(N=Cc5ccccc5)C(=O)[C@H]23)OCO4)cc(OC)c1O [Example 3, 6H-Pyrrolo[3',4':6,7]naphtho[2,3-d]-1,3-dioxole-6-one, 5,5a,7,8,8a,9-hexahydro-9-[(4,6-O-ethylidene-β-D-glucopyranosyl)oxy]-5-[(4-hydroxy-3,5-dimethoxy)phenyl]-7-[(phenylmethylene)amino][5R-[5α,5aβ,8aα,9β(R*)]-] | 36.5 (≈ 52.8 µM) | 23.8 (≈ 34.4 µM) | 20.04 µg/mL (≈ 29 µM) | 38.3 (≈ 55.5 µM) | 56.4 (≈ 81.7 µM) | 17.80 µg/mL (≈ 25.8 µM) | 48.73 (≈ 70.6 µM) | 73.81 µg/mL (≈ 107 µM) | 10.3 (≈ 15 µM) | 42.37 (≈ 61.3 µM)
5 | COc1cc([C@@H]2c3cc4c(cc3[C@@H](O[C@@H]3O[C@@H]5CO[C@@H](C)O[C@H]5[C@H](O)[C@H]3O)[C@H]3CN(NCc5ccccc5)C(=O)[C@H]23)OCO4)cc(OC)c1O [Example 4, 6H-Pyrrolo[3',4':6,7]naphtho[2,3-d]-1,3-dioxole-6-one, 5,5a,7,8,8a,9-hexahydro-9-[(4,6-O-ethylidene-β-D-glucopyranosyl)oxy]-5-[(4-hydroxy-3,5-dimethoxy)phenyl]-7-[(phenylmethyl)amino]-, [5R-[5α,5aβ,8aα,9β(R*)]-] | > 250 | 105 (≈ 151 µM) | 113.88 µg/mL (≈ 164 µM) | > 250 | – | 95.19 µg/mL (≈ 137 µM) | – | 122.94 µg/mL and > 250 µg/mL | 73.4 (≈ 106 µM) | –
